What was measured:
[1] = system: MDA-MB-231 triple negative breast cancer cells; experiment: SRB cell viability, MDA-MB-231 cells infected with AR adenovirus; format: cell-based
Procedure: The SRB assay was used to determine cell number during cytotoxocity experiments. The following protocol was used: • 1. Cells were detached with 0.25% trypsin. • 2. Experimental cultures were cultured in 96-well microtiter plates (200 μL growth medium per well; 1,000-200,000 cells per well). • 3. Cultures were fixed with 50 μL 50% TCA (4° C.). (see cell fixation protocol for details). • 4. Fixed cells were stained with 50 μL 0.4% (wt/vol) SRB in 1% acetic acid for 10 minutes. • 5. SRB was removed and the cultures were quickly* rinsed 5 times with 1% acetic acid to remove unbound dye.** • 6. Cultures were air-dried overnight until there was no visible moisture. • 7. The cellular protein-bound SRB was dissolved with 200 μL unbuffered Tris base (10 mM, pH 10.5) for 30 minutes on a rocking platform shaker. • 8. Absorbance was read at 540 nm. * quickly performing rinsing process was to prevent desorption of protein-bound SRB ** completely removed residual wash solution by sharply flicking plates over sink.
The following protocol was used for fixing cells: • a. 50 μL of 50% TCA (4° C.) was gently layered on the top of growth medium in each well to make a final TCA concentration of 10%. • b. Cultures were incubated at 4° C. for 1 hour. • c. Cultures were washed 5 times with tap water to remove TCA, growth medium, low-molecular-weight metabolites, and serum protein. • d. Plates were air-dried until there was no visible moisture.
Cells were treated in charcoal stripped FBS (FIGS. 4A, 4C, 4E, 4G, 4I, 4K, 4M and 4O) or full serum (FIGS. 4B, 4D, 4F, 4H, 4J, 4L, 4N and 4P) for 3 days, fixed and stained with […] (SRB) to measure cell viability. Anti-proliferative IC50 values were calculated in breast cancer cells and compared to transactivation values, i.e., EC50 (agonists) and IC50 (antagonists) values, generated in HEK-293 cells.

[2] = Phase 3 trials in non-small cell lung cancer (muscle wasting); format: in vivo, human; conditions: 3 mg daily
Text: These include: 1. Protocol G100401, a Phase 1 single ascending dose study in 96 healthy, young, male volunteers; 2. Protocol G100402, a Phase 1 multiple ascending dose study in 50 healthy, young, male volunteers, and 23 elderly male volunteers with truncal obesity; 3. Protocol G100503, a Phase 1 single dose pharmacokinetic study to assess the effect of a dosage regimen that simulates a sustained release formulation to an immediate release formulation in 18 healthy, young male volunteers and 18 postmenopausal women; 4. Protocol G100506, a Phase 1 single dose pharmacokinetic study to assess the relative bioavailability of a 3 mg hard shell capsule formulation to be used during continued clinical development and to assess the effect of food on the pharmacokinetics of the 3 mg softgel formulation in 27 healthy, young, male volunteers; 5. Protocol 006, a Phase 1 single dose and multiple dose pharmacokinetic study in 24 postmenopausal, Japanese women; 6. Protocol G200501, a Phase 2 study in 60 postmenopausal women and 60 elderly men to assess lean body mass and physical function; 7. Protocol 003, a Phase 1b study in 44 postmenopausal women; 8.

HCI-13 PDX = experiment: HCI-13 (HCI-013) patient-derived xenograft in NSG mice; format: in vivo; conditions: 10 mpk p.o.
Procedure: HCI-013 tumor pieces (1 mm^3) were implanted surgically (one per mouse) under the skin on the flanks of NSG mice. Tumors were allowed to grow and reach approximately 100 mm^3 volume (1*W*W*0.526). […] Tumor volume was measured weekly and represented as % change in tumor volume. Mice were sacrificed, tumors weighed, and stored for further analysis.
All animal protocols were approved by The University of Tennessee Health Science Center (UTHSC) Institutional Animal Care and Use Research Committee. Xenograft experiments were performed as previously published (Narayanan et al. (2014) PLoS One 9, e103202). Briefly, 3 million MCF-7 cells were suspended in 0.05 ml MEM+10% FBS and 0.05 ml Matrigel/nude mouse and were injected subcutaneously. Once the tumor size reached 100-200 mm^3, the animals were randomized and treated orally with the indicated drugs formulated in DMSO:PEG-300 (15:85). HCI-7, HCI-9, and HCI-13 PDXs were gifts kindly donated by Dr. Alana Welm (Huntsman Cancer Institute, Salt Lake City, Utah). HCI PDX tumor fragments (1 mm^3) were surgically implanted under the mammary fat pad in female NOD SCID Gamma (NSG) mice. Tumor volume was measured twice weekly for MCF-7 xenograft and once or twice weekly for HCI PDXs. At the end of the study, animals were sacrificed and tumors were excised, weighed, and stored for various analyses.

MCF-7-GFP cells = format: cell-based, human
Text: Tumor microenvironment contains tumor epithelial cells, stromal cells, cancer-associated fibroblasts (CAFs), and endothelial cells. The collective function of these cells promotes the aggressive growth of tumors due to secretion of paracrine factors. The CAFs are important for the sustained growth of cancers, and they differ from normal fibroblasts in their capacity to secrete factors that promote proliferation of cancer cells. […] Medium was collected over a period of 10 days and pooled. CAFs were stained with SRB to evaluate the effect of AR ligands on proliferation.
Conditioned medium was replaced on days 4 and 7 and the cells were stained with SRB to measure viability.

MCF7 palboR cells = experiment: Proliferation of palbociclib resistant MCF-7 cells; format: cell-based; conditions: Formula IX 100 nM, Palb 125 nM
Text: Data were presented as mean values±s.e.m. […] Data represented the mean±s.e.m. of four replicate cell culture wells per condition. […] P values are indicated by gray asterisks, where ****P<0.0001 for all highlighted comparisons.
Tissue samples from an ER-positive, PR-negative, and HER2-negative (ER^+, PR^−, HER2^−) patient that progressed on (i.e., was resistant to) palbociclib were implanted into animal (NSG mice) models and grown as a patient-derived xenograft (PDX). […] This human tumor model also had amplification of the cyclin D1 (CCND1^Amp) gene which has been implicated as a driver of therapeutic resistance to CDKi. […] This is also observed in other models tested in vitro including a palbociclib resistant MCF-7 (MCF7 palbo^R) line (FIG. 44B).

## C[C@](O)(COc1ccc(C#N)cc1)C(=O)Nc1ccc(C#N)c(C(F)(F)F)c1 [Formula IX, (S)—N-(4-Cyano-3-(trifluoromethyl)phenyl)-3-(4-cyanophenoxy)-2-hydroxy-2-methylpropanamide]
[1]; AR-positive cells, 10 μM bicalutamide
  growth inhibitory effects in the presence of bicalutamide: weakened growth inhibitory effects
[1]; cells with AR, 3 days, SRB
  cell growth: inhibited
[2]
  lean body mass: increased
HCI-13 PDX
  tumor weight at sacrifice: almost complete inhibition of tumor
MCF-7-GFP cells
  proliferation of breast cancer CAFs: neither AR agonist, DHT and Formula IX, nor AR antagonist enzalutamide, affected the proliferation
MCF-7-GFP cells; 10 days
  proliferation of MCF-7-GFP cells fed conditioned medium from treated CAFs: inhibited the proliferation
MCF7 palboR cells
  anti-proliferative activity: modest activity

— patent US20220257552A1, “METHODS OF PRESCREENING AND TREATING BREAST CANCERS WITH SELECTIVE ANDROGEN RECEPTOR MODULATORS” (priority 2021, published 2022)
